Measurements published in patent US9834514B2, “Antibiotic sensitivity-restoring and photosensitive agents” (New Mexico Tech Research Foundation, priority 2015, dated 2017).
Converted amounts (≈) assume the structure as drawn. Like-named read-outs stand apart in the source and are kept apart here.

Key:
[1] = system: MES-SA/Dx5 (human uterine sarcoma grown in presence of doxorubicin); experiment: Light-activated killing of cell lines (IC50 with/without light); assay type: cell-based
Method: (§1) TABLE 15 depicts the IC50 of compounds in the presence or absence of light for human cell lines. The cell lines used were HeLa (human cervical adenocarcinoma), U-87 MG (human brain gliobastoma), MES-SA (human uterine sarcoma), MES-SA/D×5 (human uterine sarcoma grown in presence of doxorubicin), NCI-H441 (human lung papillary adenocarcinoma), A549 (human lung carcinoma), WI-38 (human embryonic lung normal), MCF7 (human breast adenocarcinoma), SW1088 (human brain astrocytoma), B16F10 (mouse skin melanoma), NIH-3T3 (mouse fibroblast), and Jurkat (human lymphoblastoma). “1-Sol” in TABLE 15 was generated by dissolving compound 1 and potassium hydroxide at a 1:1 ratio in a DMSO/water solution. The cells were irradiated with continuous white light using a LumaCare™ light source for 2 minutes at a distance of 6.5 cm from the cells.

[2] = system: WI-38 (human embryonic lung normal); experiment: as above; assay type: cell-based
Method: as §1

[3] = system: B16F10 (mouse skin melanoma); experiment: as above; assay type: cell-based
Method: as §1

[4] = system: A549 (human lung carcinoma); experiment: as above; assay type: cell-based
Method: as §1

[5] = system: MCF7 (human breast adenocarcinoma); experiment: as above; assay type: cell-based
Method: as §1

[6] = system: MES-SA (human uterine sarcoma); experiment: as above; assay type: cell-based
Method: as §1

[7] = system: MCF7A; experiment: as above; assay type: cell-based
Method: as §1

[8] = system: U-87 MG (human brain gliobastoma); experiment: as above; assay type: cell-based
Method: as §1

[9] = system: SW1088 (human brain astrocytoma); experiment: as above; assay type: cell-based
Method: as §1

[10] = system: NCI-H441 (human lung papillary adenocarcinoma); experiment: as above; assay type: cell-based
Method: as §1

[11] = system: Jurkat (human lymphoblastoma); experiment: as above; assay type: cell-based
Method: as §1

[12] = system: HeLa cells; experiment: Compound 1 in DMSO versus liposomes on HeLa cells with light (MTT); assay type: cell-based; details: 1 μM; for Compound 1 pre-incubation to max killing: in the dark
Method: An effective period of pre-incubation with the drug in the dark was determined to be about 28 hours for compound 1 in DMSO and 60 hours for liposomal delivery of compound 1. The cells were then irradiated with continuous white light for 2 minutes at a distance of 6.5 cm using a LumaCare™ light source. An MTT assay was carried out to evaluate cell viability 48 hours later.

[13] = system: Gram-positive bacteria; experiment: Bacterial patterning (chessboard mask) with light and compound 1; assay type: cell-based
Method: A chessboard mask was then placed on top of the agar plate. […] The agar plate was then inoculated with bacteria and incubated overnight at 37° C.

[14] = molecular target: T1, NorA efflux pumps in MRSA (Staphylococcus aureus, UniProt P0A0J7); experiment: Fluorescent binding assay of compound 1 with MRSA and S. aureus; details: 1 μM and 10 μM; MRSA compared to S. aureus; FIG. 1
T1 construct: endogenous in cells
T1 sequence (P0A0J7 whole entry): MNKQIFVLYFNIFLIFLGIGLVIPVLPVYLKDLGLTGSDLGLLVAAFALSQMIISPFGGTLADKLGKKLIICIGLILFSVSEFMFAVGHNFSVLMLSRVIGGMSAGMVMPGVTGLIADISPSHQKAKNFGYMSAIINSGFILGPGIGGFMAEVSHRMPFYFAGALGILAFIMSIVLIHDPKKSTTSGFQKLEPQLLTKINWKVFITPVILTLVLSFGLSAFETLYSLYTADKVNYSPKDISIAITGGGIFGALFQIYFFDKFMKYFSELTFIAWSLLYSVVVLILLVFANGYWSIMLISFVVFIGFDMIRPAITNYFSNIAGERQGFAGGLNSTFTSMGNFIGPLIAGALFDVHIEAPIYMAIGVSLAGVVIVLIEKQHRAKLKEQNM
Method: The error bars represent data from three independent measurements.
S. aureus and MRSA cells (about 10^8 CFU/mL) were treated with two doses of compound 1 (1 μM and 10 μM), and the cells were incubated at 37° C. for 15 minutes on a rotary shaker set at 150 rpm. After the incubation, the cells were transferred to a 96-well fluorescent plate reader and read every minute for 30 minutes at excitation wavelengths of 334 nm, 380 nm, and 407 nm, and an emission wavelength of 508 nm. The controls were: 1×PBS, compound 1 (1 μM and 10 μM) in 1×PBS, S. aureus in 1×PBS, and MRSA in 1×PBS.

[15] = system: Trypanosoma cruzi; experiment: Light-activated killing of parasites (MTT IC50); assay type: cell-based
Method: Trypanosomes were cultured in LIT media+10% FBS. The compounds were added to create a dilution series and incubated with the trypanosomes for 1 hour. The trypanosomes were then irradiated with continuous white light for 2 minutes at a distance of 6.5 cm using a LumaCare™ light source.

[16] = system: MRSA; experiment: Checkerboard assay (FICI); assay type: cell-based, S. aureus
Method: Another method for determining synergy is a checkerboard assay. A checkerboard assay is performed whereby one of the test compounds is serially diluted horizontally across a plate, while the other test compound is serially diluted vertically down the plate. The perpendicular serial dilutions result in combinations of the compounds that range in concentrations from the highest to the lowest of each compound added. In the present study, the checkerboard assay method was adjusted by serially diluting one of the test compounds horizontally and adding the second drug to each well at a concentration of ¼ MIC. The 24-well microtiter plate was then incubated at 37° C. for 18-24 hours on a rotary shaker incubator at 150 rpm. After incubation, MTT reagent was added to each well at a 10% sample volume. Synergy was determined on the lowest concentration of the combined drugs, which produced no purple coloring. Calculation of synergy was determined by the Fractional Inhibitory Concentration Index (FICI): FICI=([Drug 1]Synergy/[Drug1]MIC)+([Drug 2]Synergy/[Drug 2]MIC). FICI≦0.5 is an indication of synergy.
TABLE 17 details the obtained FICI values for compound 1 in combination with varying antibiotics against MRSA, A. baumannii, and E. coli.

[17] = 2 min, white light 2 minutes, read-out: Compound + light IC50
[18] = no light, read-out: Compound IC50

Q: Which IC50 ([1]; Homo sapiens, MES-SA/Dx5, 2 min, MES-SA/Dx5 (no doxorubicin), white light 2 minutes, read-out: Compound + light IC50) does the source give for `Clc1ccc(/C=C/c2[nH]c3ccccc3c2/C=C/c2ccc(Cl)cc2)cc1` [Compound 1] here?
A: 720 ± 70 nM

Q: What about the IC50 ([1]; Homo sapiens, MES-SA/Dx5, 2 min, MES-SA/Dx5 + doxorubicin, white light 2 minutes, read-out: Compound + light IC50) of the same molecule?
A: 440 ± 100 nM

Q: And the IC50 ([1]; Homo sapiens, MES-SA/Dx5, MES-SA/Dx5 + doxorubicin, no light, read-out: Compound IC50)?
A: 38800 ± 2760 nM

Q: What about the IC50 ([1]; MES-SA/Dx5 (no doxorubicin), white light 2 minutes, read-out: Compound + light IC50) of the same molecule?
A: 620 ± 30 nM

Q: What about the IC50 [2, 17] of the same molecule?
A: 330 ± 80 nM

Q: What about the IC50 [2, 18] of the same molecule?
A: 63400 ± 5480 nM

Q: What about the IC50 ([3]; B16-F10, 2 min, white light 2 minutes, read-out: Compound + light IC50) of the same molecule?
A: 410 ± 220 nM

Q: And the IC50 ([3]; B16-F10, no light, read-out: Compound IC50)?
A: 18700 ± 990 nM

Q: What about the IC50 [4, 17] of the same molecule?
A: 840 ± 320 nM

Q: What about the IC50 [4, 18] of the same molecule?
A: 17400 ± 1520 nM

Q: What about the IC50 [5, 17] of the same molecule?
A: 330 ± 40 nM

Q: What about the IC50 [5, 18] of the same molecule?
A: 17800 ± 220 nM

Q: And the IC50 [6, 17]?
A: 360 ± 50 nM

Q: What about the IC50 [6, 18] of the same molecule?
A: 42700 ± 3400 nM

Q: And the IC50 [7, 17]?
A: 400 ± 10 nM

Q: And the IC50 [7, 18]?
A: 24500 ± 200 nM

Q: And the IC50 ([8]; 2 min, U-87 MG (spheroids), white light 2 minutes, read-out: Compound + light IC50)?
A: 450 nM

Q: What about the IC50 [8, 17] of the same molecule?
A: 560 ± 20 nM

Q: And the IC50 ([8]; U-87 MG (spheroids), no light, read-out: Compound IC50)?
A: > 40000 nM

Q: And the IC50 [8, 18]?
A: 44600 ± 3680 nM

Q: And the IC50 [9, 17]?
A: 470 ± 30 nM

Q: And the IC50 [9, 18]?
A: > 50000 nM

Q: What about the IC50 [10, 17] of the same molecule?
A: 760 ± 70 nM

Q: What about the IC50 [10, 18] of the same molecule?
A: 50700 ± 4370 nM

Q: What about the IC50 [11, 17] of the same molecule?
A: 25 nM

Q: What about the IC50 [11, 18] of the same molecule?
A: > 10000 nM

Q: And the “Compound 1 (no light), killing” value [12]?
A: 6% killing

Q: And the “Compound 1 + light, killing” value ([12]; continuous white light 2 minutes, MTT 48 hours later)?
A: 77% killing

Q: And the “Compound 1 pre-incubation to max killing” value [12]?
A: 28 h

Q: What about the “Compound 1 pre-incubation to max killing” value ([12]; listed as compound 1) of the same molecule?
A: about 28 hours

Q: And the MIC [13]?
A: 400 µM (≈ 156 µg/mL)

Q: What about the “bacterial growth on irradiated agar plate” value ([13]; agar with 20 μM compound 1, white light through chessboard mask, FIG. 5) of the same molecule?
A: inhibition of bacterial growth in the illuminated parts of the agar plate

Q: And the “binding of compound 1 by cells (fluorescence)” value [14]?
A: MRSA was able to bind more of compound 1

Q: What about the IC50 ([15]; continuous white light 2 minutes, MTT 24 hours later, read-out: Compound + light IC50) of the same molecule?
A: < 500 nM

Q: And the IC50 ([15]; no light, read-out: IC50)?
A: > 100000 nM

Q: What about the “FIC Index” value ([16]; with Amoxicillin) of the same molecule?
A: 0.3

Q: And the “FIC Index” value ([16]; with Ampicillin)?
A: 0.13

Q: And the “FIC Index” value ([16]; with Dicloxicillin)?
A: 0.04

Q: What about the “FIC Index” value ([16]; with Norfloxacin) of the same molecule?
A: 0.3

Q: And the “FIC Index” value ([16]; with Tetracycline)?
A: 0.4
